Assay results reported in paper PMC11871066, “Structure-based discovery of hydrocarbon-stapled paxillin peptides that block FAK scaffolding in cancer” (Nature Communications, 2025).
Where two headings read alike, the source gives them in different places. Bridge positions count the residues as written; N and C are the ends. Square brackets hold non-standard residues; d marks the D form. Peptide text beside a SMILES is read from it. R8 = C=CCCCCCC[C@@](C)(N)C(=O)O; S5 = C=CCCC[C@](C)(N)C(=O)O

How the values were obtained:
FAK FAT domain = target: T1, FAK FAT domain (Homo sapiens, UniProt Q05397); assay: SPR binding to immobilized biotinylated FAK FAT
T1 sequence (Q05397 914-1045 limits assumed): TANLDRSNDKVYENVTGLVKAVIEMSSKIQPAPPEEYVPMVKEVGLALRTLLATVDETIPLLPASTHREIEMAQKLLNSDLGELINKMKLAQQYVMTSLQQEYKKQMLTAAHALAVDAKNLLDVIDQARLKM
Description: SPR binding studies were performed using biotinylated FAK FAT protein[51]. Briefly, SPR binding assays were performed on a ForteBio Pioneer FE SPR system using SPR running buffer (100 mM Tris-Cl pH 8.0, 200 mM NaCl, and 0.05% Tween-20). […] Desired immobilization levels were determined utilizing the following Eq. 1:1 Rmax=RproteinxMranalyte/MrproteinxVprotein where Rmax is the highest possible response of binding between the analyte and the protein, Rprotein is the change in response by the immobilization of the protein, Mr represents the mass of the analyte or protein, and Vprotein represents the number of binding sites on the protein. A target Rmax of approximately 100 RU was chosen.
All samples were diluted in the SPR buffer to a volume of 200 µl and injected using the OneStep gradient injection system at a flow rate of 150 µl/min. For a bulk standard control, a 3% (w\v) solution of sucrose in SPR buffer was used for injection. […] SPR data analysis utilized Qdat software (ForteBio, version 4.3.2 build 8) for normalization of the baseline prior to injection, channel alignment, and reference channel and blank subtraction.

trypsin = assay: Trypsin proteolytic resistance assay; conditions: immobilized trypsin-agarose resin
Description: Cell permeability of peptide drugs was determined by fluorescence measurement of TAMRA-labeled peptides in 96-well plates and ClarioStar Plus plate reader using BMG ClarioStar MARS software (version 4.20). […] Percent uptake was calculated as background-subtracted fluorescence absorbed by cells/fluorescence of peptide in media-only wells, then made relative to TAMRA-Alkyne. Three biological replicates (n = 3) were performed per cell line per treatment group. Peptide proteolysis was measured using immobilized Trypsin-agarose resin (Thermo Fisher) and quantification by LC-MS. […] In vivo pharmacokinetics were performed by the UACC Analytical Chemistry Shared Resource. […] The mice were fed NIH-31 irradiated pellets (Tekland Premier, Madison, Wisconsin), and reverse osmosis water was freely available. […] The average plasma concentration versus time data were analyzed using PKSolver (version 2.0) by a noncompartmental approach.

[1] = one-site kinetic fit, mean ± SD of n = 2-5 biological replicates, Tris pH 8.0, read-out: SPR KD

With `CC(=O)N[C@@H](CO)C(=O)N[C@@H](CC(C)C)C(=O)NCC(=O)N[C@@H](CO)C(=O)N[C@@H](CC(N)=O)C(=O)N[C@@H](CC(C)C)C(=O)N[C@]1(C)CCCCCCC=CCCC[C@@](C)(C(=O)N[C@@H](CCC(=O)O)C(=O)N[C@@H](CC(C)C)C(=O)N[C@@H](CC(N)=O)C(=O)N[C@@H](C)C(=O)N[C@H](C(=O)N[C@@H](CCC(N)=O)C(=O)N[C@@H](Cc2c[nH]cn2)C(N)=O)C(C)C)NC(=O)[C@H](CC(C)C)NC(=O)[C@H](CC(C)C)NC(=O)[C@H](CCCNC(=N)N)NC(=O)[C@H](CC(=O)O)NC(=O)[C@H](CC(C)C)NC(=O)[C@H](CCC(=O)O)NC1=O` [compound 1920] (Ac-SLGSNL[R8]ELDRLL[S5]ELNAVQH-NH2; staple 7-14) the Kd (FAK FAT domain; two-site model, site 1, mean ± SD, read-out: SPR KD1) was 0.9 ± 0.5 µM and the Kd (FAK FAT domain; two-site model, site 2, mean ± SD, read-out: SPR KD2) was 9.8 ± 6.9 µM.
`CC(=O)N[C@@H](CC(N)=O)C(=O)N[C@@H](CC(C)C)C(=O)N[C@]1(C)CCCCCCC=CCCC[C@@](C)(C(=O)N[C@@H](CCC(=O)O)C(=O)N[C@@H](CC(C)C)C(=O)N[C@@H](CC(N)=O)C(N)=O)NC(=O)[C@H](CC(C)C)NC(=O)[C@H](CC(C)C)NC(=O)[C@H](CCCNC(=N)N)NC(=O)[C@H](CC(=O)O)NC(=O)[C@H](CC(C)C)NC(=O)[C@H](CCC(=O)O)NC1=O` [compound 1907] gave a half-life at 100 µM (trypsin) of 28.4 h, a remaining at 0.25 h, 100 µM (trypsin) of 80% and a remaining at 0.5 h, 100 µM (trypsin) of 73%. For the same molecule, the remaining at 1 h, 100 µM (trypsin) was 72%, the remaining at 2 h, 100 µM (trypsin) was 73% and the remaining at 3 h, 100 µM (trypsin) was 62%. The remaining at 4 h, 100 µM (trypsin) was 58%, the remaining at 8 h, 100 µM (trypsin) was 56% and the remaining at 24 h, 100 µM (trypsin) was 43%. It also gave a remaining at 48 h, 100 µM (trypsin) of 31%.
`CC(=O)N[C@@H](CC(N)=O)C(=O)N[C@@H](CC(C)C)C(=O)N[C@@H](CO)C(=O)N[C@@H](CCC(=O)O)C(=O)N[C@@]1(C)CCCC=CCCC[C@@](C)(C(=O)N[C@@H](CC(C)C)C(=O)N[C@@H](CCC(=O)O)C(=O)N[C@@H](CC(C)C)C(=O)N[C@@H](CC(N)=O)C(N)=O)NC(=O)[C@H](CC(C)C)NC(=O)[C@H](CCCNC(=N)N)NC(=O)[C@H](CC(=O)O)NC1=O` [compound 1919] (Ac-NLSE[S5]DRL[S5]LELN-NH2; staple 5-9) gave a Kd (FAK FAT domain; [1]) of 80.6 µM.
For `CC(=O)N[C@@H](CC(N)=O)C(=O)N[C@@H](CC(C)C)C(=O)N[C@]1(C)CCCCCCC=CCCC[C@@](C)(C(=O)N[C@@H](CCC(=O)O)C(=O)N[C@@H](CC(C)C)C(=O)N[C@@H](CC(N)=O)C(N)=O)NC(=O)[C@H](CC(C)C)NC(=O)[C@H](CC(C)C)NC(=O)[C@H](CCCNC(=N)N)NC(=O)[C@H](CC(=O)O)NC(=O)[C@H](CC(C)C)NC(=O)[C@H](C)NC1=O` [compound 2009], the Kd (FAK FAT domain; [1]) was 3.4 µM.
`CC(=O)N[C@@H](CC(N)=O)C(=O)N[C@@H](CC(C)C)C(=O)N[C@]1(C)CCCCCCC=CCCC[C@@](C)(C(=O)N[C@@H](CCC(N)=O)C(=O)N[C@@H](CC(C)C)C(=O)N[C@@H](CC(N)=O)C(N)=O)NC(=O)[C@H](CC(C)C)NC(=O)[C@H](CC(C)C)NC(=O)[C@H](CCCNC(=N)N)NC(=O)[C@H](CC(=O)O)NC(=O)[C@H](CC(C)C)NC(=O)[C@H](CCC(N)=O)NC1=O` [compound 1910] (Ac-NL[R8]QLDRLL[S5]QLN-NH2; staple 3-10) gave a Kd (FAK FAT domain; [1]) of 22.6 µM.
`CC(=O)N[C@@H](CC(N)=O)C(=O)N[C@@H](CC(C)C)C(=O)N[C@]1(C)CCCCCCC=CCCC[C@@](C)(C(=O)N[C@@H](CCC(=O)O)C(=O)N[C@@H](CC(C)C)C(=O)N[C@@H](CC(N)=O)C(N)=O)NC(=O)[C@H](Cc2c[nH]c3ccccc23)NC(=O)[C@H](CC(C)C)NC(=O)[C@H](CCCNC(=N)N)NC(=O)[C@H](CC(=O)O)NC(=O)[C@H](CC(C)C)NC(=O)[C@H](CCC(=O)O)NC1=O` [compound 2007] showed a Kd (FAK FAT domain; [1]) of 60.6 µM.
With `CC(=O)N[C@@H](CC(N)=O)C(=O)N[C@@H](CC(C)C)C(=O)N[C@@H](CO)C(=O)N[C@@H](CCC(=O)O)C(=O)N[C@@H](CC(C)C)C(=O)N[C@@H](CC(=O)O)C(=O)N[C@@H](CCCNC(=N)N)C(=O)N[C@@]1(C)CCCC=CCCC[C@@](C)(C(=O)N[C@@H](CC(N)=O)C(N)=O)NC(=O)[C@H](CCC(=O)O)NC(=O)[C@H](CC(C)C)NC(=O)[C@H](CC(C)C)NC1=O` [compound 2015] (Ac-NLSELDR[S5]LLE[S5]N-NH2; staple 8-12) the Kd (FAK FAT domain) was 30.6 µM.
